Measured values published in US10780090B2, “Heteroaryl compounds useful as inhibitors of SUMO activating enzyme” (Millennium Pharmaceuticals, Inc., priority 2014, dated 2020).

Target: recombinant human SAE enzyme (Homo sapiens (Human), UniProt Q9UBT2)
Assay: SAE HTRF enzyme assay
Type: biochemical
Conditions: for inhibition at 0.111 µM: read-out: Percent Inhibition
Outline: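 First, recombinant human SAE (0.11 nM) transfers Sumo-Flag onto Ubc9-GST using 0.5 μM ATP for 105 min at 24° C. Next, EDTA-containing detection buffer with labelled anti-Flag and anti-GST antibodies is added for 2 h. Finally, FRET is quantified and percent inhibition or IC50 derived.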

[1] = SAE inhibition at compound concentration 0.111 μM
[2] = SAE inhibition, class symbols, legend in nM

Chain of recombinant human SAE enzyme (Q9UBT2 whole entry): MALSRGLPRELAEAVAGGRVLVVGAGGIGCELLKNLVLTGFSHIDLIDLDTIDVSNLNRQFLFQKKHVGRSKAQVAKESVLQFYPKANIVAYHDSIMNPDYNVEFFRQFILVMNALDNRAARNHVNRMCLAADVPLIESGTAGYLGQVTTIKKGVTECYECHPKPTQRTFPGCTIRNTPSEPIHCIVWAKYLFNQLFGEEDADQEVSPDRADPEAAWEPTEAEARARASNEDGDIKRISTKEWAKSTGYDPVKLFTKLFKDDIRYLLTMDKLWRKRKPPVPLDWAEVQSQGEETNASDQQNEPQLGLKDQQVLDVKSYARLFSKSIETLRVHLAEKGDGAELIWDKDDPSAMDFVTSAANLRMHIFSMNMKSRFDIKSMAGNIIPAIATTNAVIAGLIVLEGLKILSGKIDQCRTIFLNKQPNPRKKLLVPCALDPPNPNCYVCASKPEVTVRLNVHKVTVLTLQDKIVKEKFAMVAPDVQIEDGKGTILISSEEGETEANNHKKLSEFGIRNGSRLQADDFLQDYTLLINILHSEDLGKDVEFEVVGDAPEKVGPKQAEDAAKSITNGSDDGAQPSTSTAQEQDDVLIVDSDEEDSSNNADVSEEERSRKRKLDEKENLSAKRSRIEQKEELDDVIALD
Chain of recombinant human SAE enzyme (Q9UBE0 whole entry partner): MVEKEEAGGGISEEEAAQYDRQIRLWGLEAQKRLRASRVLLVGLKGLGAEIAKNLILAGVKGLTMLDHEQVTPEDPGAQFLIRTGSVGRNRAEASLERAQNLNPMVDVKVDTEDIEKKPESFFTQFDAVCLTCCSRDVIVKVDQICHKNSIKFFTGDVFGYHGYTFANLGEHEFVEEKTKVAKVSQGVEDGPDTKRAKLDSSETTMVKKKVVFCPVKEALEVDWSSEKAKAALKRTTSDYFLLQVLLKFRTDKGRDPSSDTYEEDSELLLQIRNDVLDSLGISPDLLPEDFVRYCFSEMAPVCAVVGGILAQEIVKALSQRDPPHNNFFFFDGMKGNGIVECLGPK

Row | Structure (SMILES) | Percent Inhibition (Concentration 0.111 μM) | IC50 (class symbols A/B/C) [nM] | Percent Inhibition [1] [%] | IC50 [2] [nM] | inhibition at 0.111 µM (Concentration 0.111 μM) [%]
1 | Cc1sc(C(=O)c2cncnc2N[C@@H]2C[C@H](COS(N)(=O)=O)[C@@H](O)C2)cc1[C@@H]1OCCc2ccc(C3CC3)cc21 (single isomer, unassigned) [I-277b, [(1R,2S,4R)-4-{[5-({4-[(1R)-7-cyclopropyl-3,4-dihydro-1H-isochromen-1-yl]-5-methyl-2-thienyl}carbonyl)pyrimidin-4-yl]amino}-2-hydroxycyclopentyl]methyl sulfamate or [(1R,2S,4R)-4-{[5-({4-[(1S)-7-cyclopropyl-3,4-dihydro-1H-isochromen-1-yl]-5-methyl-2-thienyl}carbonyl)pyrimidin-4-yl]amino}-2-hydroxycyclopentyl]methyl sulfamate] | 81 | 10 to 100 |  |  | 
2 | C[C@@]1(c2csc(C(=O)c3cncnc3N[C@@H]3C[C@H](COS(N)(=O)=O)[C@@H](O)C3)c2)NCCc2ccc(Cl)cc21 (mixture of isomers) [I-321, [(1R,2S,4R)-4-{[5-({4-[(1R)-7-chloro-1-methyl-1,2,3,4-tetrahydroisoquinolin-1-yl]-2-thienyl}carbonyl)pyrimidin-4-yl]amino}-2-hydroxycyclopentyl]methyl sulfamate and [(1R,2S,4R)-4-{[5-({4-[(1S)-7-chloro-1-methyl-1,2,3,4-tetrahydroisoquinolin-1-yl]-2-thienyl}carbonyl)pyrimidin-4-yl]amino}-2-hydroxycyclopentyl]methyl sulfamate] |  |  | 94 | < 10 | 
3 | CC(C)(C)OC(=O)N1CCc2ccc(Cl)cc2[C@@H]1c1cc(C(=O)c2cncnc2N[C@@H]2C[C@H](COS(N)(=O)=O)[C@@H](O)C2)sc1Cl.CC(C)(C)OC(=O)N1CCc2ccc(Cl)cc2[C@H]1c1cc(C(=O)c2cncnc2N[C@@H]2C[C@H](COS(N)(=O)=O)[C@@H](O)C2)sc1Cl (mixture of isomers) [I-336, tert-butyl (1R)-7-chloro-1-(2-chloro-5-{[4-({(1R,3S,4R)-3-hydroxy-4-[(sulfamoyloxy)methyl]cyclopentyl}amino)pyrimidin-5-yl]carbonyl}-3-thienyl)-3,4-dihydroisoquinoline-2(1H)-carboxylate and tert-butyl (1S)-7-chloro-1-(2-chloro-5-{[4-({(1R,3S,4R)-3-hydroxy-4-[(sulfamoyloxy)methyl]cyclopentyl}amino)pyrimidin-5-yl]carbonyl}-3-thienyl)-3,4-dihydroisoquinoline-2(1H)-carboxylate] |  |  | 15 | 100 to 1000 | 
4 | CN(C)Cc1sc(C(=O)c2cncnc2N[C@@H]2C[C@H](COS(N)(=O)=O)[C@@H](O)C2)cc1Cc1cccc(Cl)c1 [I-77, [(1R,2S,4R)-4-{[5-({4-(3-chlorobenzyl)-5-[(dimethylamino)methyl]-2-thienyl}carbonyl)pyrimidin-4-yl]amino}-2-hydroxycyclopentyl]methyl sulfamate] |  | < 10 |  |  | 98
5 | NS(=O)(=O)OC[C@H]1C[C@@H](Nc2ncncc2C(=O)c2cc([C@@H]3OCC(F)(F)c4ccc(Cl)cc43)cs2)C[C@@H]1O.NS(=O)(=O)OC[C@H]1C[C@@H](Nc2ncncc2C(=O)c2cc([C@H]3OCC(F)(F)c4ccc(Cl)cc43)cs2)C[C@@H]1O (mixture of isomers) [I-289, [(1R,2S,4R)-4-{[5-({4-[(1R)-7-chloro-4,4-difluoro-3,4-dihydro-1H-isochromen-1-yl]-2-thienyl}carbonyl)pyrimidin-4-yl]amino}-2-hydroxycyclopentyl]methyl sulfamate and [(1R,2S,4R)-4-{[5-({4-[(1S)-7-chloro-4,4-difluoro-3,4-dihydro-1H-isochromen-1-yl]-2-thienyl}carbonyl)pyrimidin-4-yl]amino}-2-hydroxycyclopentyl]methyl sulfamate] |  |  | 98 | < 10 | 
6 | COc1ccccc1OCc1csc(C(=O)c2cncnc2N[C@@H]2C[C@H](COS(N)(=O)=O)[C@@H](O)C2)c1 [I-80, [(1R,2S,4R)-2-hydroxy-4-{[5-({4-[(2-methoxyphenoxy)methyl]-2-thienyl}carbonyl)pyrimidin-4-yl]amino}cyclopentyl]methyl sulfamate] |  | < 10 |  |  | 98
7 | NS(=O)(=O)OCC1CC(Nc2ncncc2C(=O)c2cc(C(O)(CCO)c3cccc(Cl)c3)c(Cl)s2)CC1O (mixture of isomers) [I-49, [(1R,2S,4R)-4-{[5-({5-Chloro-4-[(1S)-1-(3-chlorophenyl)-1,3-dihydroxypropyl]-2-thienyl}carbonyl)pyrimidin-4-yl]amino}-2-hydroxycyclopentyl]methyl sulfamate and [(1R,2S,4R)-4 {[5-({5-Chloro-4[(1R)-1-(3-chlorophenyl)-1,3-dihydroxypropyl]-2-thienyl}carbonyl)pyrimidin-4-yl]amino}-2-hydroxycyclopentyl]methyl sulfamate] | 98 | < 10 |  |  | 
8 | NS(=O)(=O)OC[C@H]1C[C@@H](Nc2ncncc2C(=O)c2cc(Cc3cccc(Br)c3)cs2)[C@@H](F)[C@@H]1O [I-101, {(1R,2R,3R,4R)-4-[(5-{[4-(3-bromobenzyl)-2-thienyl]carbonyl}pyrimidin-4-yl)amino]-3-fluoro-2-hydroxycyclopentyl}methyl sulfamate] |  | < 10 |  |  | 96
9 | N#Cc1sc(C(=O)c2cncnc2N[C@@H]2C[C@H](COS(N)(=O)=O)[C@@H](O)C2)cc1Cc1cccc(Cl)c1 [I-179, {(1R,2S,4R)-4-[(5-{[4-(3-chlorobenzyl)-5-cyano-2-thienyl]carbonyl}pyrimidin-4-yl)amino]-2-hydroxycyclopentyl}methyl sulfamate] |  | 10 to 100 |  |  | 86
10 | NS(=O)(=O)OC[C@H]1C[C@@H](Nc2ncncc2C(=O)c2ccc([C@@H]3OCCCc4ccc(Cl)cc43)s2)C[C@@H]1O (single isomer, unassigned) [I-343b, [(1R,2S,4R)-4-{[5-({5-[(1R)-8-chloro-1,3,4,5-tetrahydro-2-benzoxepin-1-yl]-2-thienyl}carbonyl)pyrimidin-4-yl]amino}-2-hydroxycyclopentyl]methyl sulfamate or [(1R,2S,4R)-4-{[5-({5-[(1S)-8-chloro-1,3,4,5-tetrahydro-2-benzoxepin-1-yl]-2-thienyl}carbonyl)pyrimidin-4-yl]amino}-2-hydroxycyclopentyl]methyl sulfamate] |  |  | 84 | 10 to 100 | 
11 | NS(=O)(=O)OC[C@H]1C[C@@H](Nc2ncncc2C(=O)c2cc(C3SCCc4ccc(Cl)cc43)cs2)[C@H](O)[C@@H]1O (single isomer, unassigned) [I-278a, [(1R,2R,3S,4R)-4-{[5-({4-[(1R)-7-chloro-3,4-dihydro-1H-isothiochromen-1-yl]-2-thienyl}carbonyl)pyrimidin-4-yl]amino}-2,3-dihydroxycyclopentyl]methyl sulfamate or [(1R,2R,3S,4R)-4-{[5-({4-[(1S)-7-chloro-3,4-dihydro-1H-isothiochromen-1-yl]-2-thienyl}carbonyl)pyrimidin-4-yl]amino}-2,3-dihydroxycyclopentyl]methyl sulfamate] | 77 | 10 to 100 |  |  | 
12 | NS(=O)(=O)OC[C@H]1C[C@@H](Nc2ncncc2C(=O)c2cc(CN3CCC(F)(F)C3)cs2)C[C@@H]1O [I-228, [(1R,2S,4R)-4-{[5-({4-[(3,3-Difluoropyrrolidin-1-yl)methyl]-2-thienyl}carbonyl)pyrimidin-4-yl]amino}-2-hydroxycyclopentyl]methyl sulfamate] |  | 100 to 1000 |  |  | 29
13 | NS(=O)(=O)OC[C@H]1C[C@@H](Nc2nc(Cl)ncc2C(=O)c2ccc(-c3ccccc3)o2)[C@H](O)[C@@H]1O [I-236, [(1R,2R,3S,4R)-4-{[2-chloro-5-(5-phenyl-2-furoyl)pyrimidin-4-yl]amino}-2,3-dihydroxycyclopentyl]methyl sulfamate] |  | 100 to 1000 |  |  | 19
14 | NS(=O)(=O)OC[C@H]1C[C@@H](Nc2ncncc2C(=O)c2cc(Cl)c([C@H](O)c3cccc(Cl)c3)s2)C[C@@H]1O (single isomer, unassigned) [I-151a, [(1R,2S,4R)-4-{[5-({4-chloro-5-[(R)-(3-chlorophenyl)(hydroxy)methyl]-2-thienyl}carbonyl)pyrimidin-4-yl]amino}-2-hydroxycyclopentyl]methyl sulfamate or [(1R,2S,4R)-4-{[5-({4-chloro-5-[(S)-(3-chlorophenyl)(hydroxy)methyl]-2-thienyl}carbonyl)pyrimidin-4-yl]amino}-2-hydroxycyclopentyl]methyl sulfamate] | 80 | 10 to 100 |  |  | 
15 | NS(=O)(=O)OC[C@H]1C[C@@H](Nc2ncncc2C(=O)c2cc(CO)co2)C[C@@H]1O [I-216, [(1R,2S,4R)-2-Hydroxy-4-{(5-[4-(hydroxymethyl)-2-furoyl]pyrimidin-4-yl}amino)cyclopentyl]methyl sulfamate] |  | 100 to 1000 |  |  | 36
16 | NS(=O)(=O)OC[C@H]1C[C@@H](Nc2ncncc2C(=O)c2cc(Cc3cccc(Br)c3)cs2)C[C@@H]1O [I-59, {(1R,2S,4R)-4-[(5-{[4-(3-Bromobenzyl)-2-thienyl]carbonyl}pyrimidin-4-yl)amino]-2-hydroxycyclopentyl}methyl sulfamate] |  |  |  |  | 99
17 | COc1ccc2c(n1)[C@H](c1cc(C(=O)c3cncnc3N[C@@H]3C[C@H](COS(N)(=O)=O)[C@@H](O)C3)sc1C)OCC2 (mixture of isomers) [I-339, [(1R,2S,4R)-2-hydroxy-4-{[5-({4-[(8S)-2-methoxy-5,8-dihydro-6H-pyrano[3,4-b]pyridin-8-yl]-5-methyl-2-thienyl}carbonyl)pyrimidin-4-yl]amino}cyclopentyl]methyl sulfamate and [(1R,2S,4R)-2-hydroxy-4-{[5-({4-[(8R)-2-methoxy-5,8-dihydro-6H-pyrano[3,4-b]pyridin-8-yl]-5-methyl-2-thienyl}carbonyl)pyrimidin-4-yl]amino}cyclopentyl]methyl sulfamate] |  |  | 99 | < 10 | 
